Results: doi:10.1101/2025.08.13.670122v1 (bioRxiv, 2025)
Read-outs that look alike come from different tables or passages of the source.

Target: T1, endogenous AT1R (Rattus norvegicus, UniProt P25095)
T1 construct: expressing low levels of endogenous AT1R; endogenous in cells; host or cells: rat primary VSMC, passages 13-15
T1 sequence (P25095 1-359): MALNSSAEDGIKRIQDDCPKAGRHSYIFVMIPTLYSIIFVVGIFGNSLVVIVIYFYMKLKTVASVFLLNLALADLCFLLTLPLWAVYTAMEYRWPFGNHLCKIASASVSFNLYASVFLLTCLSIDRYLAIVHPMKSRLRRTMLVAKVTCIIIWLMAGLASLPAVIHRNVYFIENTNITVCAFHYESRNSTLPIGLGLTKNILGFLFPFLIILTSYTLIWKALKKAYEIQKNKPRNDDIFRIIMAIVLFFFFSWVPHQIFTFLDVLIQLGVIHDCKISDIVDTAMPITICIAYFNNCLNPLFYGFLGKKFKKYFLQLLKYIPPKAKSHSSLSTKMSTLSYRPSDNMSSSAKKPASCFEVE
Assay: Rho BRET sensor in rat primary VSMC with endogenous AT1R
Assay type: cell-based
Details: for Emax Rho in VSMCs (% AngII): Rho sensor, for 12 and TRV027 response at 10 μM; for EC50: adenoviral Rho BRET sensor, 1 min 30 s stimulation, mean ± SEM of at least three to five independent experiments, read-out: EC50 Rho in VSMCs
From the text: We next assessed the analogs’ ability to engage Gαq by assessing either the PKC or Rho responses in rat primary vascular smooth muscle cell (VSMC) culture, expressing low levels of endogenous AT1R (between 25–50 fmol/mg) (Figure 4, Table 6).
The coding regions of the PKC-c1b sensor, PKN-RBD-RlucII, and rGFPcaax were PCR-amplified and subcloned into the KpnI/XhoI sites of the pENTR3C vector (Invitrogen), respectively. These were then transferred into the adenoviral expression vector pAd/CMV/V5-DEST (Invitrogen), via gateway cloning (pAD-CMV-PKC-c1b, pAD-CMV-PKN-RBD-RLucII, and pAD-CMV-rGFPcaax). Viruses containing the sensor codes were generated following a previously outlined process.[49] […] The following day, cells were transfected with 4 µg of PacI-digested pAd5-CMVsensors using Lipofectamine 2000 (Invitrogen). After 7–10 days post-transfection, mature virus particles were gleaned via the collection of cells and media, which then underwent multiple cycles of freezing and thawing, followed by centrifugation. The harvested virus was amplified by re-infection on 100-mm dishes of confluent HEK293A cells, and harvested 48-72 h later. Viral titers were determined by serial dilution of adenovirus stock and subsequent infection of HEK293A cells in 96-well plates. 36 h after infection, cells were stained using an anti-hexon antibody (ab8249; Abcam), and hexon-expressing cells were tallied via fluorescence microscopy. The virus was then stored at −80°C. After this, rat VSMCs (between the 13th to 15th passages) were seeded at a density of 20,000 cells in each well of white 96-well plates 24 h before transduction with the viral vector. The cells were then transduced with the PKC sensor-adenovirus (3 μL per well) or Rho sensor (1 μL each per well of PKN-RBD-RLucII-adnovirus and rGFP-caax adenovirus). After 24 h, the medium was replaced. 48 h post-viral transduction, the cells were thoroughly washed with Tyrode’s buffer. Finally, BRET assays were carried out as detailed below.
On the day of the experiment, each well was washed with 80 µL of Tyrode’s buffer (140 mM NaCl, 2.7 mM KCl, 1 mM CaCl2, 12 mM NaHCO3, 5.6 mM D-glucose, 0.5 mM MgCl2, 0.37 mM NaH2PO4, 25 mM Hepes (pH 7.4)). This was followed by incubation for 1 h in Tyrode’s buffer at room temperature. For the Gαq, β-arrestin-2, and PKC biosensors used in HEK293 cells, coelenterazine 400A (at a final concentration of 5 μM) was added 10 min before stimulation. Cells were then stimulated with increasing doses of the indicated ligand, and BRET signals were measured using a Tristar2 (Berthold) microplate reader 10 min later. For the PKC and Rho biosensors in VSMCs, and the Rho biosensor in ΔG12/13 cells, cells were similarly stimulated with ligands for 1 min, 1 min 30 s, and 3 min, respectively, before BRET measurement. […] BRET signals were then measured using a Synergy2 (BioTek) microplate reader. The applied filter set was 410/80 nm and 515/30 nm, designed to detect the light emissions of RlucII (Renilla luciferase) (donor) and rGFP (acceptor), respectively.

| Emax Rho in VSMCs (% AngII) | EC50 (SEM) [nM] | EC50 [nM] | SMILES |
| --- | --- | --- | --- |
| 92 | 39.1 ± 11 | – | CC[C@H](C)[C@H](NC(=O)[C@H](Cc1ccc(O)cc1)NC(=O)[C@@H](NC(=O)[C@H](CCCNC(=N)N)NC(=O)[C@@H](N)CC(=O)O)C(C)C)C(=O)N[C@@H](Cc1c[nH]cn1)C(=O)N1CCC[C@H]1C(=O)N[C@@H](Cc1ccc(OC)cc1)C(=O)O [compound 11] |
| 12 | – | > 10000 | CC[C@H](C)[C@H](NC(=O)[C@H](Cc1ccc(O)cc1)NC(=O)[C@@H](NC(=O)[C@H](CCCNC(=N)N)NC(=O)[C@@H](N)CC(=O)O)C(C)C)C(=O)N[C@@H](Cc1c[nH]cn1)C(=O)N1CCC[C@H]1C(=O)N[C@@H](Cc1ccc(OCc2ccccc2)cc1)C(=O)O [compound 12] |
